Results reported in ChEMBL document CHEMBL6074631, “Design, synthesis, and evaluation of pyranochromene derivatives as membrane targeting antibacterials against Gram-positive bacteria” (Bioorg Med Chem Lett, 2024).
≈ marks a conversion by molar mass, not a printed value. Calls of active or inactive are those of the source. No cut-off for these calls is given here.

How the values were obtained:
[1] = system: Enterococcus faecalis; experiment: Antibacterial activity against penicillin-susceptible Enterococcus faecalis ATCC29212 assessed as reduction in bacterial growth by broth microdilution assay; assay type: functional
[2] = system: Staphylococcus aureus; experiment: Antibacterial activity against […] Staphylococcus aureus ATCC43300 assessed as reduction in bacterial growth by broth microdilution assay; assay type: functional
[3] = system: Staphylococcus aureus; experiment: Antibacterial activity against Staphylococcus aureus ATCC25923 assessed as reduction in bacterial growth by broth microdilution assay; assay type: functional
[4] = system: Acinetobacter baumannii; experiment: Antibacterial activity against Acinetobacter baumannii ATCC19606 assessed as reduction in bacterial growth by broth microdilution assay; assay type: functional
[5] = system: Klebsiella pneumoniae; experiment: Antibacterial activity against erythromycin-susceptible Klebsiella pneumoniae ATCC10031 assessed as reduction in bacterial growth by broth microdilution assay; assay type: functional
[6] = system: Escherichia coli; experiment: Antibacterial activity against Escherichia coli ATCC25922 assessed as reduction in bacterial growth by broth microdilution assay; assay type: functional
[7] = system: Staphylococcus aureus; experiment: Antibacterial activity against Staphylococcus aureus ATCC31007 assessed as reduction in bacterial growth by broth microdilution assay; assay type: functional
[8] = system: Staphylococcus epidermidis; experiment: Antibacterial activity against vancomycin-susceptible Staphylococcus epidermidis ATCC12228 assessed as reduction in bacterial growth by broth microdilution assay; assay type: functional
[9] = system: Pseudomonas aeruginosa; experiment: Antibacterial activity against penicillin-susceptible Pseudomonas aeruginosa ATCC27853 assessed as reduction in bacterial growth by broth microdilution assay; assay type: functional
[10] = system: Bacillus subtilis; experiment: Antibacterial activity against […] Bacillus subtilis ATCC9372 assessed as reduction in bacterial growth by broth microdilution assay; assay type: functional
[11] = system: Cell membrane; experiment: Disruption of cell membrane integrity in Staphylococcus aureus ATCC43300 assessed as red fluorescence by DAPI staining based fluorescence assay; assay type: subcellular
[12] = system: Cell membrane; experiment: Disruption of cell membrane integrity in Staphylococcus aureus ATCC43300 assessed as blue fluorescence by DAPI staining based fluorescence assay; assay type: subcellular
[13] = Hemolytic activity in RBC (unknown origin) assessed as hemolysis; assay type: toxicity, cell-based

SMILES | MIC [1] [µg/mL] | MIC [2] [µg/mL] | MIC [3] [µg/mL] | MIC [4] [µg/mL] | MIC [5] [µg/mL] | MIC [6] [µg/mL] | MIC [7] [µg/mL] | MIC [8] [µg/mL] | MIC [9] [µg/mL] | MIC [10] [µg/mL] | Activity [11] | Activity [12] | HC90 ([13]; rbc) [µg/mL] | HC50 ([13]; red blood cells) [µg/mL]
COc1c2c(c3c(c1C(=O)/C=C/c1ccc(OCCC[N+](C)(C)CCCN)cc1)OC(C)(CCC=C(C)C)C=C3)OC(C)(CCC=C(C)C)C=C2 (stereo not given) | > 128 | 32 | 16 | > 128 | > 128 | > 128 | 8 | 4 | > 128 | 8 | – | – | – | –
COc1c2c(c3c(c1C(=O)/C=C/c1ccc(OCCCN(C)CCCN(C)C)cc1)OC(C)(CCC=C(C)C)C=C3)OC(C)(CCC=C(C)C)C=C2 (stereo not given) | 16 (≈ 22.5 µM) | > 128 | > 128 | > 128 | > 128 | > 128 | > 128 | 2 (≈ 2.81 µM) | > 128 | > 128 | – | – | – | –
CC(=O)c1c(OCC(=O)N(C)CCCN(C)C)c2c(c3c1OC(C)(CCC=C(C)C)C=C3)OC(C)(CCC=C(C)C)C=C2 (stereo not given) | 2 (≈ 3.37 µM) | 4 (≈ 6.75 µM) | 4 (≈ 6.75 µM) | 128 (≈ 216 µM) | > 128 | > 128 | 4 (≈ 6.75 µM) | 2 (≈ 3.37 µM) | 128 (≈ 216 µM) | 2 (≈ 3.37 µM) | – | – | – | –
COc1c2c(c3c(c1C(=O)/C=C/c1ccc(OCCCN4CCSCC4)cc1)OC(C)(CCC=C(C)C)C=C3)OC(C)(CCC=C(C)C)C=C2 (stereo not given) | > 128 | > 128 | > 128 | > 128 | > 128 | > 128 | > 128 | > 128 | > 128 | > 128 | – | – | – | –
COc1c2c(c3c(c1C(=O)/C=C/c1ccc(OCCCN4CCOCC4)cc1)OC(C)(CCC=C(C)C)C=C3)OC(C)(CCC=C(C)C)C=C2 (stereo not given) | > 128 | > 128 | > 128 | > 128 | > 128 | > 128 | > 128 | > 128 | > 128 | > 128 | – | – | – | –
CNCCN(C)C(=O)COc1c2c(c3c(c1C(C)=O)OC(C)(CCC=C(C)C)C=C3)OC(C)(CCC=C(C)C)C=C2 (stereo not given) | 8 (≈ 14.2 µM) | 4 (≈ 7.08 µM) | 4 (≈ 7.08 µM) | 128 (≈ 227 µM) | 128 (≈ 227 µM) | > 128 | 4 (≈ 7.08 µM) | 4 (≈ 7.08 µM) | 128 (≈ 227 µM) | 16 (≈ 28.3 µM) | – | – | – | –
CCN(CC)CCCNC(=O)COc1c2c(c3c(c1C(C)=O)OC(C)(CCC=C(C)C)C=C3)OC(C)(CCC=C(C)C)C=C2 (stereo not given) | 2 (≈ 3.3 µM) | 4 (≈ 6.59 µM) | 4 (≈ 6.59 µM) | > 128 | > 128 | > 128 | 4 (≈ 6.59 µM) | 2 (≈ 3.3 µM) | 128 (≈ 211 µM) | 2 (≈ 3.3 µM) | – | – | – | –
CC[N+](CC)(CC)CCCOc1ccc(/C=C/C(=O)c2c(OC)c3c(c4c2OC(C)(CCC=C(C)C)C=C4)OC(C)(CCC=C(C)C)C=C3)cc1 (stereo not given) | 32 | > 128 | 64 | > 128 | > 128 | > 128 | 64 | 4 | > 128 | 64 | – | – | – | –
CN[C@H](CC(C)C)C(=O)N[C@H]1C(=O)N[C@@H](CC(N)=O)C(=O)N[C@H]2C(=O)N[C@H]3C(=O)N[C@H](C(=O)N[C@H](C(=O)O)c4cc(O)cc(O)c4-c4cc3ccc4O)[C@H](O)c3ccc(c(Cl)c3)Oc3cc2cc(c3O[C@@H]2O[C@H](CO)[C@@H](O)[C@H](O)[C@H]2O[C@H]2C[C@](C)(N)[C@H](O)[C@H](C)O2)Oc2ccc(cc2Cl)[C@H]1O [VANCOMYCIN] | 2 (≈ 1.38 µM) | – | – | 16 (≈ 11 µM) | 128 (≈ 88.3 µM) | 128 (≈ 88.3 µM) | – | – | > 128 | 0.5 (≈ 0.345 µM) | – | – | – | –
CCNCCCOc1ccc(/C=C/C(=O)c2c(OC)c3c(c4c2OC(C)(CCC=C(C)C)C=C4)OC(C)(CCC=C(C)C)C=C3)cc1 (stereo not given) | > 128 | > 128 | > 128 | 128 (≈ 200 µM) | > 128 | > 128 | > 128 | > 128 | 128 (≈ 200 µM) | 128 (≈ 200 µM) | – | – | – | –
COc1c2c(c3c(c1C(=O)/C=C/c1ccc(OCCCNCCCN4CCN(C)CC4)cc1)OC(C)(CCC=C(C)C)C=C3)OC(C)(CCC=C(C)C)C=C2 (stereo not given) | 8 (≈ 10.6 µM) | 8 (≈ 10.6 µM) | 4 (≈ 5.32 µM) | > 128 | > 128 | > 128 | 4 (≈ 5.32 µM) | 4 (≈ 5.32 µM) | > 128 | 4 (≈ 5.32 µM) | – | – | – | –
COc1c2c(c3c(c1C(=O)/C=C/c1ccc(OCCC[N+](C)(C)CCCN(C)C)cc1)OC(C)(CCC=C(C)C)C=C3)OC(C)(CCC=C(C)C)C=C2 (stereo not given) | 16 | 16 | 4 | 32 | > 128 | > 128 | 32 | 2 | > 128 | 4 | – | – | – | –
CC(=O)c1c(OCC(=O)NCCCN2CCCC2)c2c(c3c1OC(C)(CCC=C(C)C)C=C3)OC(C)(CCC=C(C)C)C=C2 (stereo not given) | 8 (≈ 13.2 µM) | 4 (≈ 6.61 µM) | 4 (≈ 6.61 µM) | 128 (≈ 212 µM) | > 128 | > 128 | 4 (≈ 6.61 µM) | 8 (≈ 13.2 µM) | > 128 | 16 (≈ 26.5 µM) | – | – | – | –
COc1c2c(c3c(c1C(=O)/C=C/c1ccc(OCCCN(CCCN(C)C)CCCN(C)C)cc1)OC(C)(CCC=C(C)C)C=C3)OC(C)(CCC=C(C)C)C=C2 (stereo not given) | 8 (≈ 10.2 µM) | 8 (≈ 10.2 µM) | 8 (≈ 10.2 µM) | > 128 | > 128 | > 128 | 8 (≈ 10.2 µM) | 2 (≈ 2.56 µM) | > 128 | 8 (≈ 10.2 µM) | – | – | – | –
CC[C@H](C)[C@H](NC(=O)CN)C(=O)NCC(=O)N[C@@H](C)C(=O)N[C@H](C(=O)N[C@@H](CC(C)C)C(=O)N[C@@H](CCCCN)C(=O)N[C@H](C(=O)N[C@@H](CC(C)C)C(=O)N[C@H](C(=O)N[C@H](C(=O)NCC(=O)N[C@@H](CC(C)C)C(=O)N1CCC[C@H]1C(=O)N[C@@H](C)C(=O)N[C@@H](CC(C)C)C(=O)N[C@H](C(=O)N[C@@H](CO)C(=O)N[C@@H](Cc1c[nH]c2ccccc12)C(=O)N[C@H](C(=O)N[C@@H](CCCCN)C(=O)N[C@@H](CCCNC(=N)N)C(=O)N[C@@H](CCCCN)C(=O)N[C@@H](CCCNC(=N)N)C(=O)N[C@@H](CCC(N)=O)C(=O)N[C@@H](CCC(N)=O)C(N)=O)[C@@H](C)CC)[C@@H](C)CC)[C@@H](C)O)[C@@H](C)O)C(C)C)C(C)C | – | – | – | – | – | – | – | – | – | – | Active | Active | – | –
CCCCN(CCCC)CCCNC(=O)COc1c2c(c3c(c1C(C)=O)OC(C)(CCC=C(C)C)C=C3)OC(C)(CCC=C(C)C)C=C2 (stereo not given) | 4 (≈ 6.03 µM) | 8 (≈ 12.1 µM) | 4 (≈ 6.03 µM) | > 128 | > 128 | > 128 | 4 (≈ 6.03 µM) | 4 (≈ 6.03 µM) | > 128 | 8 (≈ 12.1 µM) | – | – | – | –
CCN(CC)CCCNCCCOc1ccc(/C=C/C(=O)c2c(OC)c3c(c4c2OC(C)(CCC=C(C)C)C=C4)OC(C)(CCC=C(C)C)C=C3)cc1 (stereo not given) | 32 (≈ 44.1 µM) | 16 (≈ 22.1 µM) | 16 (≈ 22.1 µM) | > 128 | > 128 | > 128 | 32 (≈ 44.1 µM) | 4 (≈ 5.52 µM) | > 128 | 8 (≈ 11 µM) | – | – | – | –
CC(=O)c1c(OCC(=O)NCCCN2CCN(C)CC2)c2c(c3c1OC(C)(CCC=C(C)C)C=C3)OC(C)(CCC=C(C)C)C=C2 (stereo not given) | 0.5 (≈ 0.789 µM) | 4 (≈ 6.31 µM) | 2 (≈ 3.16 µM) | 128 (≈ 202 µM) | > 128 | > 128 | 2 (≈ 3.16 µM) | 1 (≈ 1.58 µM) | > 128 | 2 (≈ 3.16 µM) | – | – | 137.3 | 46
